The record followed here is patent US20210255193A1, “LYSINE REACTIVE PROBES AND USES THEREOF” (The Scripps Research Institute, priority 2017, published 2021).

The test system of assay [1] is lysine residues in human cell proteomes (MDA-MB-231, Ramos, Jurkat). Description: isoTOP-ABPP lysine reactivity profiling (0.1 vs 1 mM probe 1). It is filed as binding. The protocol: (§1) STP-alkyne labeling and click chemistry. For concentration-dependent reactivity measurements by isoTOP-ABPP, 0.5 ml proteome aliquots were treated at ambient temperature with 1 mM STP-alkyne 1 (5 μl of 100 mM stock in DMSO) and 0.1 mM STP alkyne 1 (5 μl of 10 mM stock in DMSO), respectively. For competitive isoTOP-ABPP, after in vitro fragment treatment (detailed above), the samples were labeled for 1 h at ambient temperature with 0.1 mM STP-alkyne 1 (5 μl of 10 mM stock in DMSO). Samples were conjugated by copper-mediated azide-alkyne cycloaddition (CuAAC) to either the light (1 mM STP-alkyne or fragment treated) or heavy (0.1 mM STP-alkyne or DMSO treated) TEV tags (10 μl of 5 mM stocks in DMSO, final concentration=100 μM) using tris(2-carboxyethyl)phosphine hydrochloride
(§2) R value calculation and processing. The ratios of light and heavy MS1 peaks for each unique peptide were quantified with a CIMAGE software using default parameters (3 MS1 acquisitions per peak and signal to noise threshold set to 2.5). For reactivity measurements by isoTOP-ABPP, the R value was calculated from the ratio of MS1 peak areas, comparing the 1 mM STP alkyne sample (light TEV tag) with the 0.1 mM STP alkyne sample (heavy TEV tag). For competitive isoTOP-ABPP, the R value was calculated from the ratio of MS1 peak areas, comparing the DMSO treated sample (heavy TEV tag) with the compound treated sample (light TEV tag). […] Ratios for unique peptide entries are calculated for each experiment; overlapping peptides with the same modified lysine (for example, different charge states, MudPIT chromatographic steps or tryptic termini) are grouped together and the median ratio is reported as the final ratio (R). The peptide ratios reported by CIMAGE were further filtered to ensure the removal or correction of low-quality ratios in each individual data set. […]
(§3) Cross-data processing for reactivity profiling. For reactivity profiling, the median of biological replicates of the same condition and cell-line was calculated. For peptides containing several possible modified lysines, the lysine with the highest number of quantification events was used for analysis and the remaining, redundant peptides were reported as alternative modification sites. Peptides were required to be detected in at least one 1 mM vs 0.1 mM and one 0.1 mM vs 0.1 mM data set with the latter R value being smaller than 2.5. […] If the lysine was not detected in any soluble fraction, the R value from the membrane fraction was taken. Additionally, all membrane-only lysines with reactivity values were further required to have been detected in at least one 0.1 mM vs 0.1 mM membrane profiling experiment. […]
(§4) Here, the intrinsic reactivity of lysine residues was assessed in human cell proteomes. In brief, proteomes from three human cancer cell lines were treated (MDA-MB-231, Ramos, and Jurkat cells) with low vs high concentrations of probe 1 (0.1 vs 1 mM, n=4 per group) for 1 h and then analyzed the samples by isoTOP-ABPP, wherein high, medium, and low reactivity lysines were distinguished by their respective isotopic ratio values (R10:1<2, 2<R10:1<5, R10:1>5, respectively). […]

The target in assay [2] is T1, lysine residues in human cell proteomes (MDA-MB-231, Ramos, Jurkat) (Homo sapiens, UniProt Q9NVS9).
T1 construct: endogenous in cells; host or cells: MDA-MB-231, Ramos, Jurkat lysates
Described as above. The class given is binding. To be noted: PNPO K100; 1 mM vs 0.1 mM probe 1. The protocol: as §1, §2, §3, §4

T1 sequence (Q9NVS9 whole entry): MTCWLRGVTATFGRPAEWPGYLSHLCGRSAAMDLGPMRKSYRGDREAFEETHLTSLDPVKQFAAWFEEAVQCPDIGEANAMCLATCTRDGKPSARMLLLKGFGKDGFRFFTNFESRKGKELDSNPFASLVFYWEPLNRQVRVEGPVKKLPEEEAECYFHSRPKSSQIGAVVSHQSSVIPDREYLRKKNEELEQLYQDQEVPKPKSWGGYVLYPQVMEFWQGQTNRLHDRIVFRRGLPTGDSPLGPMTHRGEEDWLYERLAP

Regarding `C#CCCC(=O)Oc1c(F)c(F)c(S(=O)(=O)[O-])c(F)c1F.[Na+]` [probe 1, reference compound], the “selectivity for lysine modification over other amino acids” value in assay [1] (1 mM probe) was “excellent selectivity for lysine modification over other amino acids”. Moreover, in assay [1] (0.1 vs 1 mM probe 1, 1 h), the “hyper-reactive lysines (R10:1 <2), total residues” value was determined as 310; the “quantified lysines with R10:1 values = 10 (low intrinsic reactivity)” value is on record as more than 50%; the “quantified lysines with hyper-reactivity with probe 1 (R10:1 values <2)” value is on record as less than 10%. The “R10:1 lysine reactivity ratio” value in assay [2] was found to be 0.7.
